One data set concerns the target Cytochrome P450 3A4 (Homo sapiens, UniProt P08684). The experiment in a line: Inhibition of CYP3A4.
The next data set concerns the target Cytochrome P450 2D6 (Homo sapiens, UniProt P10635). The experiment in a line: Inhibition of CYP2D6.

Cytochrome P450 2D6, sequence (P10635 whole entry): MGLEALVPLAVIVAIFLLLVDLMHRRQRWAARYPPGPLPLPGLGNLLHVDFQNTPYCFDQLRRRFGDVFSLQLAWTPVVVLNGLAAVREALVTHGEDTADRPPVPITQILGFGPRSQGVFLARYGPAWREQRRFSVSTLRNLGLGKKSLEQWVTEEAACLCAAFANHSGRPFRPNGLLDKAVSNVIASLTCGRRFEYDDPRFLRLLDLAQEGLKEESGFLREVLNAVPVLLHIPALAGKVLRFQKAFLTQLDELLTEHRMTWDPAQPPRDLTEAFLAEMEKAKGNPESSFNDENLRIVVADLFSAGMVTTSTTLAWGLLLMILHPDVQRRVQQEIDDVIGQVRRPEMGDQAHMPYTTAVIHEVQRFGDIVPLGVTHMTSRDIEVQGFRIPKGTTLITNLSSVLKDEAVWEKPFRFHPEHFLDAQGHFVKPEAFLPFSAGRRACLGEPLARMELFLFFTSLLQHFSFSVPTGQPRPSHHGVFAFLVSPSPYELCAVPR
Cytochrome P450 3A4, sequence (P08684 whole entry): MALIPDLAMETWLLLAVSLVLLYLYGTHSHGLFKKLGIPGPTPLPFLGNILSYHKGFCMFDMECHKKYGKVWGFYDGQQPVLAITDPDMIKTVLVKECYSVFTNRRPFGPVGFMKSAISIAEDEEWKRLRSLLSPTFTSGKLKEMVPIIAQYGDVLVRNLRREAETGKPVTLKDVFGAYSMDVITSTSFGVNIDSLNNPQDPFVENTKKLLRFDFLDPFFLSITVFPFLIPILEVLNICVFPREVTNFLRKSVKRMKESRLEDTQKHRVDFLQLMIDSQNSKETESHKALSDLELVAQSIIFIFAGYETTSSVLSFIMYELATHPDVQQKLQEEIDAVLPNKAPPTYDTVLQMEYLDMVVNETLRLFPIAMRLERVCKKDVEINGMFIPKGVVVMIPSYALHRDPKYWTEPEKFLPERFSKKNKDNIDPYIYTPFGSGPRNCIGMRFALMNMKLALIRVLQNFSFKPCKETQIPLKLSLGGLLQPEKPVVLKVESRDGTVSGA

As usually defined, the IC50 is the concentration at which inhibition is half-maximal. Low readings indicate greater potency in that assay, high ones weaker potency in that assay. Regarding `O=C(C1CCC(F)(F)CC1)N1CC(c2nc(-c3cccc(Cl)c3)no2)C1`, the concentration for half-maximal inhibition (IC50) turned out to be 25 µM on Cytochrome P450 3A4 and 33 µM on Cytochrome P450 2D6.
In the same order, the values of `CC1CCCCC1C(=O)N1CC(c2nc(-c3cccc(F)c3)no2)C1` (centres undefined) are 25 µM and 40 µM.

The record behind these values is BindingDB's records for doi:10.1016/j.bmcl.2012.08.044 (Lundbeck Research Usa, 2012).
